Assays:
Assay type in all cases: binding
[1] = target: HEK293 cell lysate proteins (Homo sapiens, UniProt P61626)
[2] = target: HEK293 cell lysate proteins (Homo sapiens, UniProt P26358)
[3] = target: HEK293 cell lysate proteins (Homo sapiens, UniProt Q96QA5)
[4] = target: HEK293 cell lysate proteins (Homo sapiens, UniProt Q5T749)
[5] = target: HEK293 cell lysate proteins (Homo sapiens, UniProt P31944)
[6] = target: HEK293 cell lysate proteins (Homo sapiens, UniProt P05109)
[7] = target: HEK293 cell lysate proteins (Homo sapiens, UniProt Q15424)
Sequence of HEK293 cell lysate proteins (Homo sapiens, UniProt Q15424) (Q15424 whole entry): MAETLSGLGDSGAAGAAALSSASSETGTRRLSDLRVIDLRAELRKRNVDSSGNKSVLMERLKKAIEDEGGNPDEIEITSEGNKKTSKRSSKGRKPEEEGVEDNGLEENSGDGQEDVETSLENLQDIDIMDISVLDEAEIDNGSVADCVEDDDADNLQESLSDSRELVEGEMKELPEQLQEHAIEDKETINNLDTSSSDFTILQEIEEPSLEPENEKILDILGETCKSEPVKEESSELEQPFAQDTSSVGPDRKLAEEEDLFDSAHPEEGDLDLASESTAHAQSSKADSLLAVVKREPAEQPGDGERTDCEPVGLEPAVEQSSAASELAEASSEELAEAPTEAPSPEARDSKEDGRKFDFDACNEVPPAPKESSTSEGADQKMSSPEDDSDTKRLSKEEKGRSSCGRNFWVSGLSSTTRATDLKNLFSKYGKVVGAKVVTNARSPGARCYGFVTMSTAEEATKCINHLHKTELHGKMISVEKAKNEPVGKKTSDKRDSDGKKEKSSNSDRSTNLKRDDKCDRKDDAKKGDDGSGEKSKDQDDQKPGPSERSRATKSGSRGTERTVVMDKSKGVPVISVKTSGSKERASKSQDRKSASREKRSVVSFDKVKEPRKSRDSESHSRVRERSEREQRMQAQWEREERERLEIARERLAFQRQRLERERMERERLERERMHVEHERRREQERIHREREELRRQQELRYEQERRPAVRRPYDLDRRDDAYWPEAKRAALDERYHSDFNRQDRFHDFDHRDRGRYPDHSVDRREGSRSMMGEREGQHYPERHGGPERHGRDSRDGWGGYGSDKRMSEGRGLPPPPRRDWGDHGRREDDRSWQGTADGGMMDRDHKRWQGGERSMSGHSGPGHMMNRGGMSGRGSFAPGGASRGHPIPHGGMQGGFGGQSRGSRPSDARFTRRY

[8] = target: HEK293 cell lysate proteins (Homo sapiens, UniProt P11586)
[9] = target: HEK293 cell lysate proteins (Homo sapiens, UniProt P06702)
[10] = target: HEK293 cell lysate proteins (Homo sapiens, UniProt P27708)
[11] = target: HEK293 cell lysate proteins (Homo sapiens, UniProt Q6ZVX7)
[12] = target: HEK293 cell lysate proteins (Homo sapiens, UniProt Q12872)
[13] = target: HEK293 cell lysate proteins (Homo sapiens, UniProt P05089)
[14] = target: HEK293 cell lysate proteins (Homo sapiens, UniProt Q86VP6)
Sequence of HEK293 cell lysate proteins (Homo sapiens, UniProt Q86VP6) (Q86VP6 whole entry): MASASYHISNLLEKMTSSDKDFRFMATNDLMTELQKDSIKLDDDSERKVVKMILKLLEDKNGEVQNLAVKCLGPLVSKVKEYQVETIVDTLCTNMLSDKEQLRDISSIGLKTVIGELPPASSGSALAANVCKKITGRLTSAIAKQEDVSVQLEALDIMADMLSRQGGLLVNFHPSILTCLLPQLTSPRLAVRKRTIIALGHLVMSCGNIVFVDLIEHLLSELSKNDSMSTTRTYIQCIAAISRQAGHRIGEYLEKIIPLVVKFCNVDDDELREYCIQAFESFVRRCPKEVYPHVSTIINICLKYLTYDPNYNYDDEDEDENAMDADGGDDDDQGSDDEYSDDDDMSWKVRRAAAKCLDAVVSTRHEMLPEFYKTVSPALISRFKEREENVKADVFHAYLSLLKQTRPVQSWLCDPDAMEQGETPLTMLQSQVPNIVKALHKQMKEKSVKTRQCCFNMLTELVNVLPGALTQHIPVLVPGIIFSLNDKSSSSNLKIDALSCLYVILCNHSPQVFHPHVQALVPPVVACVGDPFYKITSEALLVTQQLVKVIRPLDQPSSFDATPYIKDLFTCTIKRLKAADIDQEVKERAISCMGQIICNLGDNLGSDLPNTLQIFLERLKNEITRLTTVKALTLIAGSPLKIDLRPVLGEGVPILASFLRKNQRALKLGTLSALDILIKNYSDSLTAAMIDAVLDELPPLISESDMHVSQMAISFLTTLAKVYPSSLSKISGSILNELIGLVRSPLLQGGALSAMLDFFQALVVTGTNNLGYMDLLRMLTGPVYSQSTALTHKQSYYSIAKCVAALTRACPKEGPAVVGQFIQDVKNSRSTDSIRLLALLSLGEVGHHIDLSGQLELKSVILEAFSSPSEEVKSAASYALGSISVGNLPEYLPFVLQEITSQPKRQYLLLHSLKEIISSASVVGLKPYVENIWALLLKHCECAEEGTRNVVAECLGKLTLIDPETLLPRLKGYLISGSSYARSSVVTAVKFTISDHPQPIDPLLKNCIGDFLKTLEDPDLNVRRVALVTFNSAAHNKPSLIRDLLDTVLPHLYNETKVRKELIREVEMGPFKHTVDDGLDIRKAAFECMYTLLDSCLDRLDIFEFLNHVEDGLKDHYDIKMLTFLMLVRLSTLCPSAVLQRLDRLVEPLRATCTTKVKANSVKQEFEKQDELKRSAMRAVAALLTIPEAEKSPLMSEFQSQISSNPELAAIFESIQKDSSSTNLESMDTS

[15] = target: HEK293 cell lysate proteins (Homo sapiens, UniProt Q14151)
[16] = target: HEK293 cell lysate proteins (Homo sapiens, UniProt Q5T750)
[17] = target: HEK293 cell lysate proteins (Homo sapiens, UniProt P22735)
[18] = target: HEK293 cell lysate proteins (Homo sapiens, UniProt P31151)
Sequence of HEK293 cell lysate proteins (Homo sapiens, UniProt P31151) (P31151 whole entry): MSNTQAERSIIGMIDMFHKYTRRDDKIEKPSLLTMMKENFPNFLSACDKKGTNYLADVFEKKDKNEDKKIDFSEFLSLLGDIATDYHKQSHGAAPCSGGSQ

[19] = target: HEK293 cell lysate proteins (Homo sapiens, UniProt P02788)
[20] = target: HEK293 cell lysate proteins (Homo sapiens, UniProt P41252)
[21] = target: HEK293 cell lysate proteins (Homo sapiens, UniProt Q13835)
[22] = target: HEK293 cell lysate proteins (Homo sapiens, UniProt Q9HCY8)
Sequence of HEK293 cell lysate proteins (Homo sapiens, UniProt Q9HCY8) (Q9HCY8 whole entry): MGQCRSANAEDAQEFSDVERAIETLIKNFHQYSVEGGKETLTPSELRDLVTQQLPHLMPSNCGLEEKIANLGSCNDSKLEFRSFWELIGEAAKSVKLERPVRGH

[23] = target: HEK293 cell lysate proteins (Homo sapiens, UniProt P81605)
[24] = target: HEK293 cell lysate proteins (Homo sapiens, UniProt P31025)
[25] = target: HEK293 cell lysate proteins and CHIKV nsP2 (Homo sapiens, UniProt A8K2U0)
Sequence of HEK293 cell lysate proteins and CHIKV nsP2 (Homo sapiens, UniProt A8K2U0) (A8K2U0 18-1454): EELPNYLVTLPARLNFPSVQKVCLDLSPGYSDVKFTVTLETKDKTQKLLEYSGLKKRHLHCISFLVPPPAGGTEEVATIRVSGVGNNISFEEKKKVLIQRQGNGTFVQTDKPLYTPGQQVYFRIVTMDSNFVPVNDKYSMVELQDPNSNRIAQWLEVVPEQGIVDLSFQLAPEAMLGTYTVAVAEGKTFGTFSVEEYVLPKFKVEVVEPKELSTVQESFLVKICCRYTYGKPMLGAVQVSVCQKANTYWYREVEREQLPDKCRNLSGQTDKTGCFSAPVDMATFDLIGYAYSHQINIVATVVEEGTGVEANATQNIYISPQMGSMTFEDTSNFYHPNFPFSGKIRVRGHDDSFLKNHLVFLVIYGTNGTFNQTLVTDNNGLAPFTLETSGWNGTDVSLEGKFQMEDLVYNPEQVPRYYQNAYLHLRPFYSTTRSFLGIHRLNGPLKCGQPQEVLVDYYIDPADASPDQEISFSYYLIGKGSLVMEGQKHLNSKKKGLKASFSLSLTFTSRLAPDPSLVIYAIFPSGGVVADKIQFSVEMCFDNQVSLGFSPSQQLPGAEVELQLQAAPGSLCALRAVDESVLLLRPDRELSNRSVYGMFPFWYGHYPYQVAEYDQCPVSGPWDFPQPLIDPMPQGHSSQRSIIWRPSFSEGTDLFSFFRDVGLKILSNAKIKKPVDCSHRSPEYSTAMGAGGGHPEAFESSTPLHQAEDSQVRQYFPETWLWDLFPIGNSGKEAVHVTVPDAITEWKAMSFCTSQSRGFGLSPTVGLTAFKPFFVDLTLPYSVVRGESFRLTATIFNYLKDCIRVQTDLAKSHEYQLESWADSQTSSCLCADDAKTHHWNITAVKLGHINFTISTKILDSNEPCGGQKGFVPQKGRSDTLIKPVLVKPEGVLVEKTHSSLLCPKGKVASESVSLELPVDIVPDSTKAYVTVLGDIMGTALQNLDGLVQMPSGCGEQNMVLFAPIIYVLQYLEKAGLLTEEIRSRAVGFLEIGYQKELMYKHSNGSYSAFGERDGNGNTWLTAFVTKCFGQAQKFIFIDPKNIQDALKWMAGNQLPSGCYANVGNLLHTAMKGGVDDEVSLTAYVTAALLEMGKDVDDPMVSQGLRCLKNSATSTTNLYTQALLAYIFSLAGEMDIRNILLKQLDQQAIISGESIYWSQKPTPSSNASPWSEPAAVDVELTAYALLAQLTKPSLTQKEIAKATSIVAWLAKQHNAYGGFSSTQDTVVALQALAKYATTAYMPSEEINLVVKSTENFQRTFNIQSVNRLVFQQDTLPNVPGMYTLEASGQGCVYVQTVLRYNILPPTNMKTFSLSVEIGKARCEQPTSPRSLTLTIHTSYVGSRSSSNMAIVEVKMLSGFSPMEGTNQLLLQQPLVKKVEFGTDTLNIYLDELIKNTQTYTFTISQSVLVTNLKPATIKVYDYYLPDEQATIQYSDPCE

[26] = target: HEK293 cell lysate proteins and CHIKV nsP2 (Homo sapiens, UniProt P27708)
[27] = target: HEK293 cell lysate proteins and CHIKV nsP2 (Homo sapiens, UniProt P08621)
Sequence of HEK293 cell lysate proteins and CHIKV nsP2 (Homo sapiens, UniProt P08621) (P08621 whole entry): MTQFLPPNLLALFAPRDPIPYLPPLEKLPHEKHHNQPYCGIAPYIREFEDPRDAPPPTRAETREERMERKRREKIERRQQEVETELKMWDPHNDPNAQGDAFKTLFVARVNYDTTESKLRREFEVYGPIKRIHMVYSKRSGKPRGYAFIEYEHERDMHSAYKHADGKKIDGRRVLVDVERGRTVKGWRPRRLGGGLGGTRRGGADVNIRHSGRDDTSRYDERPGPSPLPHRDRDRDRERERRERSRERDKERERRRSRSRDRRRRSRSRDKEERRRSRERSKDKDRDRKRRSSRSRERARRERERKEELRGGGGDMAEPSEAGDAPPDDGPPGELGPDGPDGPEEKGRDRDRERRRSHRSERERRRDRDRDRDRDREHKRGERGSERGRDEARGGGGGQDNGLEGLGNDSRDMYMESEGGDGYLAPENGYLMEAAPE

[28] = target: HEK293 cell lysate proteins and CHIKV nsP2 (Homo sapiens, UniProt Q14241)
[29] = target: HEK293 cell lysate proteins and CHIKV nsP2 (Homo sapiens, UniProt P10599)
[30] = target: HEK293 cell lysate proteins and CHIKV nsP2 (Homo sapiens, UniProt P01040)
[31] = target: HEK293 cell lysate proteins and CHIKV nsP2 (Homo sapiens, UniProt P04406)
[32] = target: HEK293 cell lysate proteins and CHIKV nsP2 (Homo sapiens, UniProt P46013)
[33] = target: HEK293 cell lysate proteins and CHIKV nsP2 (Homo sapiens, UniProt Q8NE71)
[34] = target: HEK293 cell lysate proteins and CHIKV nsP2 (Homo sapiens, UniProt P06733)
Sequence of HEK293 cell lysate proteins and CHIKV nsP2 (Homo sapiens, UniProt P06733) (P06733 whole entry): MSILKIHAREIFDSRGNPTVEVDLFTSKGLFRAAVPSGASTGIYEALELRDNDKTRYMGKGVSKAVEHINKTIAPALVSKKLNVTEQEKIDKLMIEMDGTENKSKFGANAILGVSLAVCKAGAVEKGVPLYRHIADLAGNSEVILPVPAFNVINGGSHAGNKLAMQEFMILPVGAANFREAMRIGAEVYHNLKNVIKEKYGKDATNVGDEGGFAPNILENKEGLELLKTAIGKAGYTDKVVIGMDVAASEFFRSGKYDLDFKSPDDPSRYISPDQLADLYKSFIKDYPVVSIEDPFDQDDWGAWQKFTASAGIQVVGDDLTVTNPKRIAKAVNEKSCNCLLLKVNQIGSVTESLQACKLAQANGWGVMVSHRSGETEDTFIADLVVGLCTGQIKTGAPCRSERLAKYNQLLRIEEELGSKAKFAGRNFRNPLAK

[35] = target: HEK293 cell lysate proteins and CHIKV nsP2 (Homo sapiens, UniProt P55786)
[36] = target: HEK293 cell lysate proteins and CHIKV nsP2 (Homo sapiens, UniProt Q5JTH9)
[37] = target: HEK293 cell lysate proteins and CHIKV nsP2 (Homo sapiens, UniProt Q9HCY8)
Sequence of HEK293 cell lysate proteins and CHIKV nsP2 (Homo sapiens, UniProt Q9HCY8) (Q9HCY8 whole entry): as the sequence (Q9HCY8 whole entry) above

[38] = target: HEK293 cell lysate proteins and CHIKV nsP2 (Homo sapiens, UniProt Q08554)
[39] = target: HEK293 cell lysate proteins and CHIKV nsP2 (Homo sapiens, UniProt P05090)

Sequence of HEK293 cell lysate proteins (Homo sapiens, UniProt P31944) (P31944 6-242): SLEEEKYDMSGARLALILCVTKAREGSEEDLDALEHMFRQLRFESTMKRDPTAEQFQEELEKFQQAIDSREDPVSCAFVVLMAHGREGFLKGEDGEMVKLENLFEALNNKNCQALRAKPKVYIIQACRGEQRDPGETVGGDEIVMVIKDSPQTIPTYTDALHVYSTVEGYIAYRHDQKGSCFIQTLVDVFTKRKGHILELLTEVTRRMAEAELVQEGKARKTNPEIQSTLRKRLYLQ

C#CCOc1ccccc1-c1cc(C(=O)NC/C=C/S(C)(=O)=O)on1 [VS, (E)-N-(3-(methylsulfonyl)allyl)−3-(2-(prop-2-yn-1-yloxy)phenyl)isoxazole-5-carboxamide]
Log2 fold change [1]: 1.36
Log2 fold change [2]: 1.64
Log2 fold change [3]: 1.51
Log2 fold change [4]: 2.53
Log2 fold change [5]: 1.29
Log2 fold change [6]: 1.58
Log2 fold change [7]: 1.46
Log2 fold change [8]: -1.66
Log2 fold change [9]: 1.63
Log2 fold change [10]: 3.73
Log2 fold change [11]: 2.74
Log2 fold change [12]: -1.75
Log2 fold change [13]: 1.79
Log2 fold change [14]: -1.19
Log2 fold change [15]: 1.50
Log2 fold change [16]: 2.49
Log2 fold change [17]: 1.60
Log2 fold change [18]: -1.22
Log2 fold change [19]: 1.10
Log2 fold change [20]: 1.48
Log2 fold change [21]: 3.81
Log2 fold change [22]: 1.98
Log2 fold change [23]: 1.36
Log2 fold change [24]: 1.54
Log2 fold change [25]: 1.10
Log2 fold change [26]: 3.37
Log2 fold change [27]: 3.47
Log2 fold change [28]: -1.01
Log2 fold change [29]: 1.84
Log2 fold change [30]: 1.75
Log2 fold change [31]: 1.78
Log2 fold change [32]: 0.64
Log2 fold change [33]: -0.92
Log2 fold change [34]: 1.36
Log2 fold change [35]: 2.43
Log2 fold change [36]: -0.0263
Log2 fold change [37]: -1.35
Log2 fold change [38]: 0.93
Log2 fold change [39]: 6.55

From article PMC11873239, “A covalent chemical probe for Chikungunya nsP2 cysteine protease with antialphaviral activity and proteome-wide selectivity” (Scientific Reports, 2025)
